“Also recorded” adds a separate entry of the source.
Assays:
[1] = target: T1, P2X receptor (urinary bladder) (Cavia porcellus, UniProt A0A286XVA9); assay: Contraction of guinea pig isolated urinary bladder detrussor muscle; conditions: for activity/potency in words, bladder: guinea pig urinary bladder
T1 construct: guinea pig isolated urinary bladder detrussor muscle; from tissue; host or cells: guinea pig isolated urinary bladder detrusor muscle

[2] = target: T2, P2X receptor (vas deferens) (Cavia porcellus, UniProt A0A286XVA9); assay: Contraction of guinea pig isolated vas deferens
T2 sequence (A0A286XVA9 1-399): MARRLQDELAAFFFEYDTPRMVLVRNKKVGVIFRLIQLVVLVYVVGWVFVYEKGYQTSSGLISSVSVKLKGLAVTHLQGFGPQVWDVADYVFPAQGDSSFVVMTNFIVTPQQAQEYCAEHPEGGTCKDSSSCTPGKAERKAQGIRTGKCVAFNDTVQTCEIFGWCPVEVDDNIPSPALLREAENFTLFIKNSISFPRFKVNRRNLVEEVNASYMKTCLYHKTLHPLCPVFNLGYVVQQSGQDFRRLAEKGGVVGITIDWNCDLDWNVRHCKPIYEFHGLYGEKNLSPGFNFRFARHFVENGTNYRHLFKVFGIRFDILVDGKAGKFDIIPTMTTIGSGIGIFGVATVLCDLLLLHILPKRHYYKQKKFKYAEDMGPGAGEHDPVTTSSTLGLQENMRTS

P2X and P2Y receptors = assay: Overall activity in the seven P2X and P2Y preparations

`N#CCCCCCCSc1nc(N)c2ncn([C@@H]3O[C@H](COP(=O)(O)OP(=O)(O)OP(=O)(O)O)[C@@H](O)[C@H]3O)c2n1` [2-(6-Cyanohexylthio)-ATP, 2-(6-Cyanohexylthio)adenosine-5'-triphosphate] was tested, and the “activity/potency in words, bladder” value [1] was “it produced tonic contractions rather than the phasic; also recorded: much less potent than ATP under the same conditions”, the “times more potent than ATP, bladder” value ([1]; guinea pig urinary bladder P2X receptors) was “approximately 100 times” and the “activity/potency in words, bladder” value ([1]; listed as 2-(6-cyanohexyl)thio ATP) was “produced tonic contractions rather than the typical phasic contractions of ATP”. For the same molecule, the “activity/potency in words, bladder” value ([1]; listed as 2-(6-cyanohexyl)thio-ATP) was “produced contractions that were less tonic, and with a lower potency than ATP under the same conditions”, the “activity/potency in words, bladder” value ([1]; listed as 2-(6-cyanohexylthio)-ATP) was “potent agonists in the vas deferens and urinary bladder” and the “activity/potency in words, vas deferens” value [2] was “potent agonists in the vas deferens and urinary bladder”. For the same molecule, the “overall activity in words, all preparations” value (P2X and P2Y receptors) was “more potent than ATP in all systems except the P2X system of the saphenous artery”.
